Assay: xn = mol fraction of the nth substance listed

CC(=O)c1ccc(Cl)cc1 + CCNc1ccccc1
303.15 K, 100 kPa
Details | viscosity [mPa·s]
x2 = 0.0798 | 2.295
x2 = 0.1568 | 2.242
x2 = 0.2321 | 2.191
x2 = 0.2989 | 2.147
x2 = 0.3614 | 2.106
x2 = 0.4467 | 2.051
x2 = 0.5163 | 2.008
x2 = 0.5841 | 1.967
x2 = 0.6601 | 1.922
x2 = 0.7245 | 1.885
x2 = 0.7874 | 1.85
x2 = 0.8487 | 1.818
x2 = 0.9042 | 1.788

CC#N + CCO
viscosity [mPa·s]
Details | 293.15 K | 298.15 K | 303.15 K | 308.15 K | 313.15 K
101 kPa, x1 = 0.0898 | – | 0.87 | 0.736 | 0.632 | –
101 kPa, x1 = 0.187 | – | 0.71 | 0.606 | 0.523 | –
101 kPa, x1 = 0.2973 | – | 0.594 | 0.518 | 0.454 | –
101 kPa, x1 = 0.396 | – | 0.517 | 0.455 | 0.405 | –
101 kPa, x1 = 0.4843 | – | 0.463 | 0.409 | 0.364 | –
101 kPa, x1 = 0.5987 | – | 0.416 | 0.37 | 0.334 | –
101 kPa, x1 = 0.7114 | – | 0.376 | 0.342 | 0.309 | –
101 kPa, x1 = 0.8072 | – | 0.357 | 0.325 | 0.298 | –
101 kPa, x1 = 0.9139 | – | 0.345 | 0.314 | 0.29 | –
101.3 kPa, x1 = 0.1107 | – | 0.85 | 0.779 | 0.715 | 0.656
101.3 kPa, x1 = 0.2192 | – | 0.693 | 0.642 | 0.589 | 0.542
101.3 kPa, x1 = 0.3249 | – | 0.584 | 0.545 | 0.499 | 0.467
101.3 kPa, x1 = 0.4279 | – | 0.506 | 0.473 | 0.444 | 0.417
101.3 kPa, x1 = 0.5288 | – | 0.458 | 0.428 | 0.405 | 0.38
101.3 kPa, x1 = 0.6267 | – | 0.414 | 0.391 | 0.377 | 0.352
101.3 kPa, x1 = 0.7236 | – | 0.392 | 0.366 | 0.347 | 0.331
101.3 kPa, x1 = 0.8179 | – | 0.37 | 0.349 | 0.333 | 0.316
101.3 kPa, x1 = 0.9099 | – | 0.354 | 0.336 | 0.317 | 0.301
101.33 kPa, x1 = 0.04 | 1.12 | – | – | – | –
101.33 kPa, x1 = 0.1 | 0.9979 | – | – | – | –
101.33 kPa, x1 = 0.12 | 0.939 | – | – | – | –
101.33 kPa, x1 = 0.17 | 0.9065 | – | – | – | –
101.33 kPa, x1 = 0.28 | 0.7033 | – | – | – | –
101.33 kPa, x1 = 0.33 | 0.6415 | – | – | – | –
101.33 kPa, x1 = 0.43 | 0.5585 | – | – | – | –
101.33 kPa, x1 = 0.67 | 0.4418 | – | – | – | –
101.33 kPa, x1 = 0.83 | 0.4001 | – | – | – | –

BrC(Br)Br + C1CCCCC1
viscosity [mPa·s]
Details | x1 = 0.1747 | x1 = 0.1851 | x1 = 0.3427 | x1 = 0.3428 | x1 = 0.5476 | x1 = 0.5486 | x1 = 0.6899 | x1 = 0.6911 | x1 = 0.8718 | x1 = 0.8747
298 K, 101.3 kPa | – | 0.959 | – | 1.071 | – | 1.258 | 1.409 | – | 1.67 | –
318 K, 101.33 kPa | 0.7236 | – | 0.82 | – | 0.9769 | – | – | 1.113 | – | 1.309

CCC(C)(C)OC + C1CCCC1
viscosity [mPa·s], 100 kPa
Details | x1 = 0.0512 | x1 = 0.1014 | x1 = 0.2107 | x1 = 0.3001 | x1 = 0.4033 | x1 = 0.5001 | x1 = 0.6006 | x1 = 0.7352 | x1 = 0.8928 | x1 = 0.9498
293.15 K | 0.429 | 0.429 | 0.431 | 0.432 | 0.434 | 0.435 | 0.436 | 0.437 | 0.439 | 0.439
303.15 K | 0.386 | 0.388 | 0.392 | 0.395 | 0.398 | 0.401 | 0.404 | 0.408 | 0.413 | 0.414
313.15 K | 0.349 | 0.35 | 0.353 | 0.355 | 0.357 | 0.359 | 0.361 | 0.364 | 0.367 | 0.368

CCN(CC)CCO.Cl + OCCOCCO
101 kPa, x2 = 0.75
Details | viscosity [mPa·s]
293.15 K | 56.09
303.15 K | 50.09
313.15 K | 35.93
323.15 K | 25.49

CCCCCCCCO + Cc1ccccc1
viscosity [mPa·s], 101 kPa
Details | 298.15 K | 308.15 K
x2 = 0.0495 | 6.43 | 4.918
x2 = 0.1104 | 5.45 | 4.28
x2 = 0.1513 | 4.841 | 3.853
x2 = 0.1999 | 4.2 | 3.402
x2 = 0.2517 | 3.646 | 3.009
x2 = 0.2997 | 3.252 | 2.674
x2 = 0.356 | 2.717 | 2.317
x2 = 0.3998 | 2.395 | 2.048
x2 = 0.4506 | 2.092 | 1.825
x2 = 0.5001 | 1.84 | 1.637
x2 = 0.5513 | 1.598 | 1.42
x2 = 0.6014 | 1.404 | 1.272
x2 = 0.6495 | 1.244 | 1.119
x2 = 0.6997 | 1.098 | 1.015
x2 = 0.7569 | 0.96 | 0.87
x2 = 0.8012 | 0.859 | 0.779
x2 = 0.8527 | 0.769 | 0.699
x2 = 0.9 | 0.674 | 0.61
x2 = 0.954 | 0.612 | 0.554

BrC(Br)Br + CC(C)CO
viscosity [mPa·s], 101.3 kPa
Details | x1 = 0.099 | x1 = 0.197 | x1 = 0.3 | x1 = 0.395 | x1 = 0.498 | x1 = 0.597 | x1 = 0.701 | x1 = 0.798 | x1 = 0.901
298.15 K | 2.98 | 2.604 | 2.336 | 2.134 | 2.017 | 1.905 | 1.849 | 1.815 | 1.823
303.15 K | 2.544 | 2.272 | 2.045 | 1.901 | 1.808 | 1.732 | 1.693 | 1.679 | 1.699
308.15 K | 2.193 | 2.011 | 1.803 | 1.687 | 1.633 | 1.579 | 1.559 | 1.558 | 1.591

CCCCCCCCO + CCCCCCCC
298.15 K, 101.33 kPa
Details | viscosity [mPa·s]
x1 = 0.0015 | 0.491
x2 = 0.0566 | 6.369
x2 = 0.1294 | 5.058
x2 = 0.2321 | 3.637
x2 = 0.353 | 2.469
x2 = 0.4724 | 1.705
x2 = 0.527 | 1.452
x2 = 0.6297 | 1.094
x2 = 0.778 | 0.764
x2 = 0.8294 | 0.683
x2 = 0.9163 | 0.572
